Reference: the supplement of paper PMC11665569

Experiments:
Conditions in all cases: treatment time: 5 days
SW1573 = tested on: SW1573
Protocol: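 CCK-8 viability of KRAS G12C-mutant cancer cell lines transfected with control, YAP/TAZ or TEAD1-4 siRNAs and treated with KRAS G12C inhibitors for 5 days; IC50 fitted in Prism after normalising absorbance at 450 nm to vehicle control.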

MIAPACA2 = experiment: relative viability (fraction of vehicle control); higher = more viable / less inhibited
Protocol: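 CCK-8 viability of MIAPACA2 cells with empty vector or constitutively active YAP S127A, treated with KRAS G12C inhibitors for 5 days, normalised to vehicle control.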

H1373 = experiment: as above
Protocol: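 CCK-8 viability of H1373 cells with empty vector or constitutively active YAP S127A, treated with KRAS G12C inhibitors for 5 days, normalised to vehicle control.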

KYSE410 = experiment: as above
Protocol: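 CCK-8 viability of KYSE410 cells transfected with control, YAP/TAZ or TEAD1-4 siRNAs and treated with KRAS G12C inhibitors for 5 days. Values are normalised to vehicle control.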

C=CC(=O)N1CCN(c2nc(=O)n(-c3c(C)ccnc3C(C)C)c3nc(-c4c(O)cccc4F)c(F)cc23)[C@@H](C)C1 [AMG510]
Conditions | IC50 (cell viability, 5 days) [nM] | relative viability
H1373, log10 concentration (uM): 0, ectopic expression: YAP S127A | – | 0.575
H1373, log10 concentration (uM): 0, ectopic expression: empty vector (YAP experiment) | – | 0.267
H1373, log10 concentration (uM): 1, ectopic expression: YAP S127A | – | 0.47
H1373, log10 concentration (uM): 1, ectopic expression: empty vector (YAP experiment) | – | 0.245
H1373, log10 concentration (uM): 1.301029996, ectopic expression: YAP S127A | – | 0.25
H1373, log10 concentration (uM): 1.301029996, ectopic expression: empty vector (YAP experiment) | – | 0.12
H1373, log10 concentration (uM): -1, ectopic expression: YAP S127A | – | 0.581
H1373, log10 concentration (uM): -1, ectopic expression: empty vector (YAP experiment) | – | 0.351
H1373, log10 concentration (uM): -1.30103, ectopic expression: YAP S127A | – | 0.619
H1373, log10 concentration (uM): -1.30103, ectopic expression: empty vector (YAP experiment) | – | 0.407
H1373, log10 concentration (uM): -2, ectopic expression: YAP S127A | – | 0.636
H1373, log10 concentration (uM): -2, ectopic expression: empty vector (YAP experiment) | – | 0.624
H1373, log10 concentration (uM): -2.30103, ectopic expression: YAP S127A | – | 0.71
H1373, log10 concentration (uM): -2.30103, ectopic expression: empty vector (YAP experiment) | – | 0.68
H1373, log10 concentration (uM): -3, ectopic expression: YAP S127A | – | 0.834
H1373, log10 concentration (uM): -3, ectopic expression: empty vector (YAP experiment) | – | 0.937
H1373, log10 concentration (uM): -4, ectopic expression: YAP S127A | – | 0.986
H1373, log10 concentration (uM): -4, ectopic expression: empty vector (YAP experiment) | – | 1.01
KYSE410, log10 concentration (uM): 0, siRNA knockdown: TEAD1-4 siRNA 1 | – | 0.586
KYSE410, log10 concentration (uM): 0, siRNA knockdown: TEAD1-4 siRNA 2 | – | 0.488
KYSE410, log10 concentration (uM): 0, siRNA knockdown: YAP/TAZ siRNA 1 | – | 0.416
KYSE410, log10 concentration (uM): 0, siRNA knockdown: YAP/TAZ siRNA 2 | – | 0.353
KYSE410, log10 concentration (uM): 0, siRNA knockdown: negative control siRNA | – | 0.695
KYSE410, log10 concentration (uM): 1, siRNA knockdown: TEAD1-4 siRNA 1 | – | 0.181
KYSE410, log10 concentration (uM): 1, siRNA knockdown: TEAD1-4 siRNA 2 | – | 0.118
KYSE410, log10 concentration (uM): 1, siRNA knockdown: YAP/TAZ siRNA 1 | – | 0.141
KYSE410, log10 concentration (uM): 1, siRNA knockdown: YAP/TAZ siRNA 2 | – | 0.137
KYSE410, log10 concentration (uM): 1, siRNA knockdown: negative control siRNA | – | 0.382
KYSE410, log10 concentration (uM): 1.301029996, siRNA knockdown: TEAD1-4 siRNA 1 | – | 0.0525
KYSE410, log10 concentration (uM): 1.301029996, siRNA knockdown: TEAD1-4 siRNA 2 | – | 0.0471
KYSE410, log10 concentration (uM): 1.301029996, siRNA knockdown: YAP/TAZ siRNA 1 | – | 0.0378
KYSE410, log10 concentration (uM): 1.301029996, siRNA knockdown: YAP/TAZ siRNA 2 | – | 0.0518
KYSE410, log10 concentration (uM): 1.301029996, siRNA knockdown: negative control siRNA | – | 0.164
KYSE410, log10 concentration (uM): -1, siRNA knockdown: TEAD1-4 siRNA 1 | – | 0.691
KYSE410, log10 concentration (uM): -1, siRNA knockdown: TEAD1-4 siRNA 2 | – | 0.63
KYSE410, log10 concentration (uM): -1, siRNA knockdown: YAP/TAZ siRNA 1 | – | 0.59
KYSE410, log10 concentration (uM): -1, siRNA knockdown: YAP/TAZ siRNA 2 | – | 0.489
KYSE410, log10 concentration (uM): -1, siRNA knockdown: negative control siRNA | – | 0.749
KYSE410, log10 concentration (uM): -1.30103, siRNA knockdown: TEAD1-4 siRNA 1 | – | 0.727
KYSE410, log10 concentration (uM): -1.30103, siRNA knockdown: TEAD1-4 siRNA 2 | – | 0.664
KYSE410, log10 concentration (uM): -1.30103, siRNA knockdown: YAP/TAZ siRNA 1 | – | 0.643
KYSE410, log10 concentration (uM): -1.30103, siRNA knockdown: YAP/TAZ siRNA 2 | – | 0.522
MIAPACA2, log10 concentration (uM): 0, ectopic expression: YAP S127A | – | 0.773
MIAPACA2, log10 concentration (uM): 0, ectopic expression: empty vector (YAP experiment) | – | 0.0894
MIAPACA2, log10 concentration (uM): 1, ectopic expression: YAP S127A | – | 0.727
MIAPACA2, log10 concentration (uM): 1, ectopic expression: empty vector (YAP experiment) | – | 0.106
MIAPACA2, log10 concentration (uM): 1.301029996, ectopic expression: YAP S127A | – | 0.285
MIAPACA2, log10 concentration (uM): 1.301029996, ectopic expression: empty vector (YAP experiment) | – | 0.047
MIAPACA2, log10 concentration (uM): -1, ectopic expression: YAP S127A | – | 0.861
MIAPACA2, log10 concentration (uM): -1, ectopic expression: empty vector (YAP experiment) | – | 0.128
MIAPACA2, log10 concentration (uM): -1.30103, ectopic expression: YAP S127A | – | 0.91
MIAPACA2, log10 concentration (uM): -1.30103, ectopic expression: empty vector (YAP experiment) | – | 0.237
MIAPACA2, log10 concentration (uM): -2, ectopic expression: YAP S127A | – | 0.988
MIAPACA2, log10 concentration (uM): -2, ectopic expression: empty vector (YAP experiment) | – | 0.79
MIAPACA2, log10 concentration (uM): -2.30103, ectopic expression: YAP S127A | – | 1.03
MIAPACA2, log10 concentration (uM): -2.30103, ectopic expression: empty vector (YAP experiment) | – | 0.906
MIAPACA2, log10 concentration (uM): -3, ectopic expression: YAP S127A | – | 1.05
MIAPACA2, log10 concentration (uM): -3, ectopic expression: empty vector (YAP experiment) | – | 1.03
MIAPACA2, log10 concentration (uM): -4, ectopic expression: YAP S127A | – | 1
MIAPACA2, log10 concentration (uM): -4, ectopic expression: empty vector (YAP experiment) | – | 1
SW1573, siRNA knockdown (Con = control): Con | 12300 | –
SW1573, siRNA knockdown (Con = control): TEAD1234_si1 | 10.9 | –
SW1573, siRNA knockdown (Con = control): TEAD1234_si2 | 4.11 | –
SW1573, siRNA knockdown (Con = control): YAP_WWTR1_si1 | 2.87 | –
SW1573, siRNA knockdown (Con = control): YAP_WWTR1_si2 | 3.42 | –
